For the first assay, the target named is T1, PLK1 (Homo sapiens, UniProt P53350).
T1 construct: Full-length, active GST-PLK1 is purified from Sf9 insect cells; made in house; host or cells: Sf9 insect cells
T1 sequence (P53350 whole entry): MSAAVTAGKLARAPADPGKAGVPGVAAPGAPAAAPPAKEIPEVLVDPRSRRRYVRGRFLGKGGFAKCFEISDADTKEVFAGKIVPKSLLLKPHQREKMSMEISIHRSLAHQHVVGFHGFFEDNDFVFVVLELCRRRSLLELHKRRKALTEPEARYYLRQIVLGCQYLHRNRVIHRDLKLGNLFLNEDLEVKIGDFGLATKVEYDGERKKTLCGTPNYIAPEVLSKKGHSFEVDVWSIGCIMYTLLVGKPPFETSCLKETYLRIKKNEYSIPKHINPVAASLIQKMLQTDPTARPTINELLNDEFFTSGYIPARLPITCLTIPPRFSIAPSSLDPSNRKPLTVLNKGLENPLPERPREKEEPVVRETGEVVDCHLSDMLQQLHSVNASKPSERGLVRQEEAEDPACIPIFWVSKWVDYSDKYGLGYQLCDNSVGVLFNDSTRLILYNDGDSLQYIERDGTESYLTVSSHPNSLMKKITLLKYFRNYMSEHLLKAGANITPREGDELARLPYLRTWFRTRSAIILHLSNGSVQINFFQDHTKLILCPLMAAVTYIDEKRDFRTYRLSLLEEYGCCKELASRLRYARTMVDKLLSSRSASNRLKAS
Kind of assay: Biochemical Characterization Assay: HTRF kinase assay, GST-PLK1 phosphorylation of GST-p53. Conditions: GST-PLK1, GST-p53 substrate. The essentials:
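HTRF read-out of p53 phosphorylation: after EDTA stop, anti-phospho-p53 antibody bound 30 min at 37 °C in HEPES pH 7 buffer, with Eu-anti-rabbit/APC-anti-GST detection. Kinase step used full-length Sf9-expressed GST-PLK1 (3 ug/mL) and E. coli GST-p53 substrate, 35 min at 37 °C.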
For orientation: Time-resolved FRET reads energy transfer from a long-lived donor to a nearby acceptor.
In turn, `COc1cc(C(=O)NC2CCN(C)CC2)ccc1Nc1ncc2c(n1)N(CCCc1ccccc1)CC(F)(F)C(=O)N2C` [Example I-282, 4-[7,7-difluoro-5-methyl-6-oxo-9-(3-phenyl-propyl)-6,7,8,9-tetrahydro-5H-pyrimido[4,5-b][1,4]diazepin-2-ylamino]-3-methoxy-N-(1-methyl-piperidin-4-yl)-benzamide] had an IC50 of 1 to 50 nM.
Regarding `COc1cc(C(=O)NC2CCNCC2)ccc1Nc1ncc2c(n1)N(C1CCCCC1)CC(F)(F)C(=O)N2C` [Example I-251, 4-(9-cyclohexyl-7,7-difluoro-5-methyl-6-oxo-6,7,8,9-tetrahydro-5H-pyrimido[4,5-b][1,4]diazepin-2-ylamino)-3-methoxy-N-piperidin-4-yl-benzamide], the half-maximal inhibitory concentration (IC50) fell in the range of 1 to 50 nM.
In turn, `CN1C(=O)C(F)(F)CN(C2CCCC2)c2nc(Nc3ccc(C(=O)NC4CCN(C(=O)OC(C)(C)C)CC4)cc3F)ncc21` [Example I-229, 4-[4-(9-cyclopentyl-7,7-difluoro-5-methyl-6-oxo-6,7,8,9-tetrahydro-5H-pyrimido[4,5-b][1,4]diazepin-2-ylamino)-3-fluoro-benzoylamino]-piperidine-1-carboxylic acid tert-butyl ester] yielded an IC50 of 1 to 50 nM.
In turn, `CCOc1cc(C(=O)NC)ccc1Nc1ncc2c(n1)N(C1CCCC1)CC(F)(F)C(=O)N2C` [Example I-220, 4-(9-cyclopentyl-7,7-difluoro-5-methyl-6-oxo-6,7,8,9-tetrahydro-5H-pyrimido[4,5-b][1,4]diazepin-2-ylamino)-3-ethoxy-N-methyl-benzamide] had an IC50 of 1 to 50 nM.
Turning to `COc1cc(C(=O)N[C@H]2CC[C@@H](N3CCN(CC4CC4)CC3)CC2)ccc1Nc1ncc2c(n1)N(C1CCCC1)CC(F)(F)C(=O)N2C` [Example I-299, 4-(9-cyclopentyl-7,7-difluoro-5-methyl-6-oxo-6,7,8,9-tetrahydro-5H-pyrimido[4,5-b][1,4]diazepin-2-ylamino)-N-[cis-4-(4-cyclopropylmethyl-piperazin-1-yl)-cyclohexyl]-3-methoxy-benzamide], the IC50 is 1 to 50 nM.
Regarding `COc1cc(C(=O)NC2CCOCC2)c(F)cc1Nc1ncc2c(n1)N(C1CCCC1)CC(F)(F)C(=O)N2C` [Example I-173, 4-(9-cyclopentyl-7,7-difluoro-5-methyl-6-oxo-6,7,8,9-tetrahydro-5H-pyrimido[4,5-b][1,4]diazepin-2-ylamino)-2-fluoro-5-methoxy-N-(tetrahydropyran-4-yl)-benzamide], the IC50 lay within 1 to 50 nM.
`CN1C(=O)C(F)(F)CN(C2CCCC2)c2nc(Nc3ccc(C(N)=O)cc3C(F)(F)F)ncc21` [Example I-213, 4-(9-cyclopentyl-7,7-difluoro-5-methyl-6-oxo-6,7,8,9-tetrahydro-5H-pyrimido[4,5-b][1,4]diazepin-2-ylamino)-3-trifluoromethyl-benzamide]: the IC50 was in the range of 51 to 500 nM.
`CCN1CCC(NC(=O)c2ccc(Nc3ncc4c(n3)N(C3CCCCC3)CC(F)(F)C(=O)N4C)c(OC)c2)CC1` [Example I-255, 4-(9-cyclohexyl-7,7-difluoro-5-methyl-6-oxo-6,7,8,9-tetrahydro-5H-pyrimido[4,5-b][1,4]diazepin-2-ylamino)-N-(1-ethyl-piperidin-4-yl)-3-methoxy-benzamide] yielded an IC50 of 1 to 50 nM.

The assay is the same for the next values; noted with them: GST-PLK1, GST-p53 substrate, ATP.
On to `COc1cc(C(=O)N[C@H]2CC[C@@H](N)CC2)ccc1Nc1ncc2c(n1)N(C1CCCC1)CC(F)(F)C(=O)N2C` [Example I-98, cis-N-(4-amino-cyclohexyl)-4-(9-cyclopentyl-7,7-difluoro-5-methyl-6-oxo-6,7,8,9-tetrahydro-5H-pyrimido[4,5-b][1,4]diazepin-2-ylamino)-3-methoxy-benzamide], for which the IC50 is 1 to 50 nM.
In the case of `COc1cc(C(=O)N[C@@H]2CCNC[C@@H]2OC)ccc1Nc1ncc2c(n1)N(C1CCCC1)CC(F)(F)C(=O)N2C` (racemic) [Example I-57, rac-(3S,4R)-4-(9-cyclopentyl-7,7-difluoro-5-methyl-6-oxo-6,7,8,9-tetrahydro-5H-pyrimido[4,5-b][1,4]diazepin-2-ylamino)-3-methoxy-N-(3-methoxy-piperidin-4-yl)-benzamide], the IC50 was 1 to 50 nM.
`COc1cc(C(=O)NCCN2CCOCC2)ccc1Nc1ncc2c(n1)N(C1CCCC1)CC(F)(F)C(=O)N2C` [Example I-117, 4-(9-cyclopentyl-7,7-difluoro-5-methyl-6-oxo-6,7,8,9-tetrahydro-5H-pyrimido[4,5-b][1,4]diazepin-2-ylamino)-3-methoxy-N-(2-morpholin-4-yl-ethyl)-benzamide] yielded an IC50 of 1 to 50 nM.
Compound `COc1cc(C(=O)NCCc2c[nH]c3ccccc23)ccc1Nc1ncc2c(n1)N(C1CCCC1)CC(F)(F)C(=O)N2C` [Example I-51, 4-(9-cyclopentyl-7,7-difluoro-5-methyl-6-oxo-6,7,8,9-tetrahydro-5H-pyrimido[4,5-b][1,4]diazepin-2-ylamino)-N-[2-(1H-indol-3-yl)-ethyl]-3-methoxy-benzamide] came in with an IC50 of 51 to 500 nM.
In turn, `COc1cc(C(=O)NCC(C)(C)CN(C)C)ccc1Nc1ncc2c(n1)N(C1CCCC1)CC(F)(F)C(=O)N2C` [Example I-60, 4-(9-cyclopentyl-7,7-difluoro-5-methyl-6-oxo-6,7,8,9-tetrahydro-5H-pyrimido[4,5-b][1,4]diazepin-2-ylamino)-N-(3-dimethylamino-2,2-dimethyl-propyl)-3-methoxy-benzamide] gave an IC50 of 1 to 50 nM.
Regarding `COc1cc(C(=O)NC2CCN(C)CC2)ccc1Nc1ncc2c(n1)N(C1CCCC1)CC(F)(F)C(=O)N2` [Example I-137, 4-(9-cyclopentyl-7,7-difluoro-6-oxo-6,7,8,9-tetrahydro-5H-pyrimido[4,5-b][1,4]diazepin-2-ylamino)-3-methoxy-N-(1-methyl-piperidin-4-yl)-benzamide], the IC50 was 51 to 500 nM.
Consider `COc1cc(C(=O)NCc2cc(Cl)cc(Cl)c2)ccc1Nc1ncc2c(n1)N(C1CCCC1)CC(F)(F)C(=O)N2C` [Example I-42, 4-(9-cyclopentyl-7,7-difluoro-5-methyl-6-oxo-6,7,8,9-tetrahydro-5H-pyrimido[4,5-b][1,4]diazepin-2-ylamino)-N-(3,5-dichloro-benzyl)-3-methoxy-benzamide], for which the IC50 was in the range of 1 to 50 nM.
On the same count and under the same terms, next, `COc1cc(C(=O)NCCCN2CCN(C(=O)OC(C)(C)C)CC2)ccc1Nc1ncc2c(n1)N(C1CCCC1)CC(F)(F)C(=O)N2C` [Example I-94, 4-{3-[4-(9-cyclopentyl-7,7-difluoro-5-methyl-6-oxo-6,7,8,9-tetrahydro-5H-pyrimido[4,5-b][1,4]diazepin-2-ylamino)-3-methoxy-benzoylamino]-propyl}-piperazine-1-carboxylic acid tert-butyl ester]: 1 to 50 nM; `COc1cc(C(=O)NCCO)ccc1Nc1ncc2c(n1)N(C1CCCC1)CC(F)(F)C(=O)N2C` [Example I-30, 4-(9-cyclopentyl-7,7-difluoro-5-methyl-6-oxo-6,7,8,9-tetrahydro-5H-pyrimido[4,5-b][1,4]diazepin-2-ylamino)-N-(2-hydroxy-ethyl)-3-methoxy-benzamide]: 1 to 50 nM.
In turn, `COc1cc(C(=O)NCc2ccsc2)ccc1Nc1ncc2c(n1)N(C1CCCC1)CC(F)(F)C(=O)N2C` [Example I-33, 4-(9-cyclopentyl-7,7-difluoro-5-methyl-6-oxo-6,7,8,9-tetrahydro-5H-pyrimido[4,5-b][1,4]diazepin-2-ylamino)-3-methoxy-N-thiophen-3-ylmethyl-benzamide] yielded an IC50 of 51 to 500 nM.

The IC50 is the concentration that inhibits the measured activity by half. A high value points to weaker potency in that assay.

For the origin of these results see US8003785B2 (Takeda Pharmaceutical Company Limited, priority 2008, dated 2011).
